Experimental data reported in ChEMBL document CHEMBL1909046, “DrugMatrix in vitro pharmacology data”.

Key:
[1] = biological target: T1, Amine oxidase [flavin-containing] A (Homo sapiens, UniProt P21397); assay: DRUGMATRIX: Monoamine Oxidase MAO-A enzyme inhibition (substrate: Kynuramine); parameters: species or system BTI-TN-5B1-4; details: bti-tn-5b1-4; Not Active = under 50% inhibition at 10 µM
T1 sequence (P21397 whole entry): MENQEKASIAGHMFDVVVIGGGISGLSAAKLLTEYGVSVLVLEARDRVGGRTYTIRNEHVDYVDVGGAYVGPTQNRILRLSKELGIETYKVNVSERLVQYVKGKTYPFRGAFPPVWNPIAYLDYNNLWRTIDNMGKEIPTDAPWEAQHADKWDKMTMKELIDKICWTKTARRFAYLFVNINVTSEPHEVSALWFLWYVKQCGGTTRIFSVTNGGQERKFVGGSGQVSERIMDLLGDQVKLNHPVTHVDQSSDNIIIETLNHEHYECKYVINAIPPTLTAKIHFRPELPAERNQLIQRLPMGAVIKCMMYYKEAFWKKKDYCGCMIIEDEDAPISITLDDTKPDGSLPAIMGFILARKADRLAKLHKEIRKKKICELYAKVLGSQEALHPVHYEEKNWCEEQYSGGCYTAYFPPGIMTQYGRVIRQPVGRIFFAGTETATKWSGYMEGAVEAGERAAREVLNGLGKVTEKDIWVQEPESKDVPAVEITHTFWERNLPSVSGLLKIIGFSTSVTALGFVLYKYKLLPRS

[2] = biological target: T2, Muscarinic acetylcholine receptor M2 (Homo sapiens, UniProt P08172); type: cell membranes, CHO-K1, Membrane; details: cho-k1; note: in other assays of this panel Not Active means under 50% inhibition at 10 µM
T2 sequence (P08172 whole entry): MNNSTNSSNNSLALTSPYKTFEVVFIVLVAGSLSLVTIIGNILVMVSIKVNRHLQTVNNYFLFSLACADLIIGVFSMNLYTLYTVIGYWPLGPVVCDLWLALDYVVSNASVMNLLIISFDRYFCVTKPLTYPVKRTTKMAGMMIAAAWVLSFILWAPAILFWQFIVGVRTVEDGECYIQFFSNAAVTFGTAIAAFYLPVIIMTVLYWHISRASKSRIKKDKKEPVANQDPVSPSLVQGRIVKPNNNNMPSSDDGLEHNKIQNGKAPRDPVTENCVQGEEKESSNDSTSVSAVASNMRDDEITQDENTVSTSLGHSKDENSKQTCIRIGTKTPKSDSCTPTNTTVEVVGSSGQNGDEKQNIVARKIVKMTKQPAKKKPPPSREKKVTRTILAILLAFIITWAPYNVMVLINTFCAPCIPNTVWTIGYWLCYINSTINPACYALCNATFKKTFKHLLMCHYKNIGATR

[3] = biological target: Protein kinase C alpha type (Homo sapiens, UniProt P17252); type: cell-based; details: sf9;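 note: inhibition of PKCalpha kinase activity measured in an enzyme assay with histone as the phosphorylation substrate; in other assays of this panel Not Active means under 50% inhibition at 10 µM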
Cytochrome P450 1A2 = biological target: T3, Cytochrome P450 1A2 (Homo sapiens, UniProt P05177); details: bti-tn-5b1-4; note: in other assays of this panel Not Active means under 50% inhibition at 10 µM
T3 sequence (P05177 whole entry): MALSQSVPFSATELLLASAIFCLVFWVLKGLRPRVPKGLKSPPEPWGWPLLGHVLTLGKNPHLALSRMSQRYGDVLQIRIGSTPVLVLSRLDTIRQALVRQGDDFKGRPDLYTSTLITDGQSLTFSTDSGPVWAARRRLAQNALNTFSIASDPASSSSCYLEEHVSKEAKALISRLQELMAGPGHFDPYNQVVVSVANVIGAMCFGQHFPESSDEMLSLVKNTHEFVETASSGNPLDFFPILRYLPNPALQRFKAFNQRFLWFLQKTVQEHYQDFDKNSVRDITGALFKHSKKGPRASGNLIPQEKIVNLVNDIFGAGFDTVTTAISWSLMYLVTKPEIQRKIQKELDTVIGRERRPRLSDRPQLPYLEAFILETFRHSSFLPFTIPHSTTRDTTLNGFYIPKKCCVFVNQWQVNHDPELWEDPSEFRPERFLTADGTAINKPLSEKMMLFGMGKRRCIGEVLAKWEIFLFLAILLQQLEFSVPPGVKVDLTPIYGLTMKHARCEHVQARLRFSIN

Caspase-1 = biological target: T4, Caspase-1 (Homo sapiens, UniProt P29466); parameters: species or system Escherichia coli;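 note: Caspase-1 enzyme inhibition assay with a peptide substrate; in other assays of this panel Not Active means under 50% inhibition at 10 µM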
T4 sequence (P29466 whole entry): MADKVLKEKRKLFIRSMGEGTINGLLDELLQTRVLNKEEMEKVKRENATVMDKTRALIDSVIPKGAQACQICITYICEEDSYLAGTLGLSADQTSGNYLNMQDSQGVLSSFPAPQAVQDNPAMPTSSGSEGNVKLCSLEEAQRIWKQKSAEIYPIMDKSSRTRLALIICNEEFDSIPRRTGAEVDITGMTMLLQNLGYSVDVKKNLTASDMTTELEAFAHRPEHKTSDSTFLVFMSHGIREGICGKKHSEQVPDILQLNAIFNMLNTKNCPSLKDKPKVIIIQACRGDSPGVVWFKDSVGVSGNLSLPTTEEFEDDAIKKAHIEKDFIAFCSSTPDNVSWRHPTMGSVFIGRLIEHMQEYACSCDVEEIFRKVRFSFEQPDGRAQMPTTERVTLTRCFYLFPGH

[4] = biological target: 5-hydroxytryptamine receptor 4 (Cavia porcellus, UniProt O70528); type: cell membranes, Dunkin-Hartley, Striatum, Membrane; note: in other assays of this panel Not Active means under 50% inhibition at 10 µM
Sequence of 5-hydroxytryptamine receptor 4 (O70528 whole entry): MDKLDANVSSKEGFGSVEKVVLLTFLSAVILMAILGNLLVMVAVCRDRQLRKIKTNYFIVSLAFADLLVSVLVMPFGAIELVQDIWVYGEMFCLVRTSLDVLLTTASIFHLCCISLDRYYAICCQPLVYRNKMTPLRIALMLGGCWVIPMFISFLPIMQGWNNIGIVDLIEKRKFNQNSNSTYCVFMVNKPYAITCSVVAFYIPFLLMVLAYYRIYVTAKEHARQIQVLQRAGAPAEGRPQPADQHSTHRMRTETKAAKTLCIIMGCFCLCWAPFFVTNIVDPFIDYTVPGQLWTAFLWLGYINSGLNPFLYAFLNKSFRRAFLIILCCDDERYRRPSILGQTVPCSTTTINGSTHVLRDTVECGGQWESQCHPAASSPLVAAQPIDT

CC(=O)[C@H]1[C@H](C#N)C[C@H]2[C@@H]3CC=C4C[C@@H](O)CC[C@]4(C)[C@H]3CC[C@@]21C [PREGNENOLONE CARBONITRILE]
Not Active: IC50 [1] | IC50 [2] | IC50 [3] | IC50 (Cytochrome P450 1A2) | Ki (Cytochrome P450 1A2) | IC50 (Caspase-1) | IC50 [4]

C[C@@H]1CC[C@@]2(OC1)O[C@H]1[C@@H](O)[C@H]3[C@@H]4CC[C@H]5C[C@@H](O[C@@H]6O[C@H](CO)[C@H](O[C@@H]7O[C@H](CO)C(O)[C@H](O[C@@H]8OC[C@@H](O)[C@H](O)[C@H]8O)[C@H]7O[C@@H]7O[C@H](CO)[C@H](O)[C@H](O[C@@H]8O[C@H](CO)[C@@H](O)[C@H](O)[C@H]8O)[C@H]7O)[C@H](O)[C@H]6O)[C@H](O)C[C@]5(C)[C@H]4CC[C@]3(C)[C@H]1[C@@H]2C (some centres undefined) [DIGITONIN]
Not Active: IC50 [1] | IC50 [2] | IC50 [3] | IC50 (Cytochrome P450 1A2) | Ki (Cytochrome P450 1A2) | IC50 (Caspase-1) | IC50 [4]
